Data: patent US9723860B2, “Method for improving economic performance in poultry husbandry” (PURAC BIOCHEM BV, priority 2012, dated 2017)

System: Broiler chickens
Assay: Example 2: 20 day performance of broilers on decreasing levels of lactylate mixture or diclazuril
Type: in vivo, chicken (broilers)
Conditions: day 20
Description: Broilers were reared on a diet containing either decreasing levels of a mixture of lauric and myristic lactylates (lactylate test diet), or an effective dose of diclazuril (coccidiostat diet), or a filler consisting of corn starch and kaolin. The birds fed the test diet including the lactylates received the lactylates from the first feed onwards. For the first 10 days, the dosing level of lactylates was 0.4%. From day 11 onwards, the dosing level was reduced to 0.3%. At day 20, the economic performance of the broilers was evaluated using the body weight, body weight gain, feed consumption and feed-to-gain ratio.

[1] = lactylates 0.4% first 10 days, 0.3% from day 11, diclazuril effective dose, in diet

N#CC(c1ccc(Cl)cc1)c1c(Cl)cc(-n2ncc(=O)[nH]c2=O)cc1Cl (centres unmarked) [Coccidiostat, diclazuril]
economic performance versus control group: did not improve performance | Body weight [1]: 850 g | Body weight gain [1]: 804 g | Feed Consumption [1]: 1115 g | Feed-to-Gain ratio [1]: 1.388 g/g
